# Patent US20240246964A1 (Arbutus Biopharma Corporation, priority 2021, published 2024)
# Biological target: human PD-L1 (Homo sapiens (Human), UniProt Q9NZQ7)
# Experiment: T cell activation luciferase reporter cell culture system (T Cell Activation Assay)
# Assay type: cell-based
# Details: luciferase reporter assay; PD-L1 aAPC/CHO-K1 cells with PD-1 effector Jurkat T cells
# human PD-L1, sequence (Q9NZQ7 19-290): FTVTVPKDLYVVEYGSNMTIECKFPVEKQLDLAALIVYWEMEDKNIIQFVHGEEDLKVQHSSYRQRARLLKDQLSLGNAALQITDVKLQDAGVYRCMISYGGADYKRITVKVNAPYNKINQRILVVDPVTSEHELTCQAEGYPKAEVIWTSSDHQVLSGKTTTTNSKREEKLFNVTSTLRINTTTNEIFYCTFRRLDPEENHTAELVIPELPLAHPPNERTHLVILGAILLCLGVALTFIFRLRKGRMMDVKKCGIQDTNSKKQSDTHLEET
row,Compound,EC50 [nM]
1,"COc1cc(-c2nccc(-c3cccc(-c4ccc(CNC[C@@H]5CCC(=O)N5)c(OC)n4)c3Cl)c2Cl)ccc1CNC1CC2(C1)CN(C(C)=O)C2 [Example 237, (S)-5-((((6-(3-(2-(4-(((2-acetyl-2-azaspiro[3.3]heptan-6-yl)amino)methyl)-3-methoxyphenyl)-3-chloropyridin-4-yl)-2-chlorophenyl)-2-methoxypyridin-3-yl)methyl)amino)methyl)pyrrolidin-2-one]",22.1
2,"COc1cc(-c2nccc(-c3cccc(-c4ccc5c(OC)c(CNCCO)cc(Cl)c5n4)c3Cl)c2Cl)ccc1CNC[C@@H]1CCC(=O)N1 [Example 238, (S)-5-(((4-(3-chloro-4-(2-chloro-3-(8-chloro-6-(((2-hydroxyethyl)amino)methyl)-5-methoxyquinolin-2-yl)phenyl)pyridin-2-yl)-2-methoxybenzyl)amino)methyl)pyrrolidin-2-one]",128
3,"CNCc1ccc(-c2nccc(-c3cccc(-c4ccc(CNC5CCN(C(C)=O)CC5)c(OC)n4)c3Cl)c2Cl)cc1OC [Example 240, 1-(4-(((6-(2-chloro-3-(3-chloro-2-(3-methoxy-4-((methylamino)methyl)phenyl)pyridin-4-yl)phenyl)-2-methoxypyridin-3-yl)methyl)amino)piperidin-1-yl)ethan-1-one]",29.1
4,"COc1cc(-c2cccc(-c3ccnc(-c4ccc5c(c4)CN(CCNC[C@@H]4CCC(=O)N4)C5=O)c3Cl)c2Cl)cc(F)c1CNC[C@@H]1CCC(=O)N1 [Example 242, 5-(3-Chloro-4-(2-chloro-3′-fluoro-5′-methoxy-4′-(((((S)-5-oxopyrrolidin-2-yl)methyl)amino)methyl)-[1,1′-biphenyl]-3-yl)pyridin-2-yl)-2-(2-((((S)-5-oxopyrrolidin-2-yl)methyl)amino)ethyl)isoindolin-1-one]",437
5,"COc1cc(-c2nccc(-c3cccc(-c4ccc(CNC5CCN(C(C)=O)CC5)c(OC)n4)c3Cl)c2Cl)ccc1CN1CC2(CC(C(=O)O)C2)C1 [Example 243, 2-(4-(4-(3-(5-(((1-acetylpiperidin-4-yl)amino)methyl)-6-methoxypyridin-2-yl)-2-chlorophenyl)-3-chloropyridin-2-yl)-2-methoxybenzyl)-2-azaspiro[3.3]heptane-6-carboxylic acid]",104
6,"COc1cc(-c2nccc(-c3cccc(-c4ccc(CNC5CCN(C(C)=O)CC5)c(OC)n4)c3Cl)c2Cl)ccc1CN1CC2(CNC(=O)C2)C1 [Example 244, 2-(4-(4-(3-(5-(((1-acetylpiperidin-4-yl)amino)methyl)-6-methoxypyridin-2-yl)-2-chlorophenyl)-3-chloropyridin-2-yl)-2-methoxybenzyl)-2,6-diazaspiro[3.4]octan-7-one]",25.2
7,"COc1cc(-c2nccc(-c3cccc(-c4ccc(CNC5CCN(C(C)=O)CC5)c(OC)n4)c3Cl)c2Cl)ccc1CN1CC[C@H](C(=O)OC(C)C)C1 [Example 245, Isopropyl (S)-1-(4-(4-(3-(5-(((1-acetylpiperidin-4-yl)amino)methyl)-6-methoxypyridin-2-yl)-2-chlorophenyl)-3-chloropyridin-2-yl)-2-methoxybenzyl)pyrrolidine-3-carboxylate]",187
8,"COc1cc(-c2nccc(-c3cccc(-c4ccc5c(CNC6CCN(C(C)=O)CC6)cn(C)c5n4)c3Cl)c2Cl)ccc1CNC1CCN(C(C)=O)CC1 [Example 246, 1-(4-((4-(4-(3-(3-(((1-acetylpiperidin-4-yl)amino)methyl)-1-methyl-1H-pyrrolo[2,3-b]pyridin-6-yl)-2-chlorophenyl)-3-chloropyridin-2-yl)-2-methoxybenzyl)amino)piperidin-1-yl)ethan-1-one]",101
9,"COc1nc(-c2ccnc(-c3cccc4c3CC[C@@H]4Oc3nc(OC)c(CN4CC5(C4)CN(C(C)=O)C5)cc3C(F)(F)F)c2Cl)ccc1CN1CC2(C1)CN(C(C)=O)C2 [Example 248, (S)-1-(6-((6-((4-(5-((6-Acetyl-2,6-diazaspiro[3.3]heptan-2-yl)methyl)-3′-chloro-6-methoxy-[2,4′-bipyridin]-2′-yl)-2,3-dihydro-1H-inden-1-yl)oxy)-2-methoxy-5-(trifluoromethyl)pyridin-3-yl)methyl)-2,6-diazaspiro[3.3]heptan-2-yl)ethan-1-one]",596
10,"COc1cc(-c2nccc(-c3cccc(-c4ccc(CN5CC6(C5)CN(C(C)=O)C6)c(OC)n4)c3Cl)c2Cl)cc2c1CN(CCCF)CC2 [Example 249, 1-(6-((6-(2-Chloro-3-(3-chloro-2-(2-(3-fluoropropyl)-8-methoxy-1,2,3,4-tetrahydroisoquinolin-6-yl)pyridin-4-yl)phenyl)-2-methoxypyridin-3-yl)methyl)-2,6-diazaspiro[3.3]heptan-2-yl)ethan-1-one]",81.7
11,"COc1cc(-c2nccc(-c3cccc(-c4ccc(CN5CC6(CNC(=O)C6)C5)c(OC)n4)c3Cl)c2Cl)cc2c1CN(CCCF)CC2 [Example 250, 2-((6-(2-Chloro-3-(3-chloro-2-(2-(3-fluoropropyl)-8-methoxy-1,2,3,4-tetrahydroisoquinolin-6-yl)pyridin-4-yl)phenyl)-2-methoxypyridin-3-yl)methyl)-2,6-diazaspiro[3.4]octan-7-one]",31
12,"COc1cc(-c2nccc(-c3cccc(-c4ccc(CNC5CC6(COC6)C5)c(OC)n4)c3Cl)c2Cl)cc2c1CN(CCCF)CC2 [Example 251, N-((6-(2-Chloro-3-(3-chloro-2-(2-(3-fluoropropyl)-8-methoxy-1,2,3,4-tetrahydroisoquinolin-6-yl)pyridin-4-yl)phenyl)-2-methoxypyridin-3-yl)methyl)-2-oxaspiro[3.3]heptan-6-amine]",117
13,"COc1cc(-c2nccc(-c3cccc(-c4ccc(CNCC5(CO)CC5)c(OC)n4)c3Cl)c2Cl)cc2c1CN(CCCF)CC2 [Example 252, (1-((((6-(2-Chloro-3-(3-chloro-2-(2-(3-fluoropropyl)-8-methoxy-1,2,3,4-tetrahydroisoquinolin-6-yl)pyridin-4-yl)phenyl)-2-methoxypyridin-3-yl)methyl)amino)methyl)cyclopropyl)methanol]",54
14,"COc1nc(-c2ccnc(-c3cccc4c3CC[C@@H]4Oc3nc(OC)c(CNC[C@H](C)O)cc3C(F)(F)F)c2Cl)ccc1CNC[C@H](C)O [Example 253, (S)-1-(((3′-Chloro-2′-((S)-1-((5-((((S)-2-hydroxypropyl)amino)methyl)-6-methoxy-3-(trifluoromethyl)pyridin-2-yl)oxy)-2,3-dihydro-1H-inden-4-yl)-6-methoxy-[2,4′-bipyridin]-5-yl)methyl)amino)propan-2-ol]",39.2
15,"COc1nc(-c2cccc(-c3ccnc(-c4ccc5c(c4)CCC[C@H]5NC[C@@H]4CCC(=O)N4)c3Cl)c2Cl)ccc1CN1CC2(CNC(=O)C2)C1 [Example 255, 2-((6-(2-chloro-3-(3-chloro-2-((R)-5-((((S)-5-oxopyrrolidin-2-yl)-methyl)-amino)-5,6,7,8-tetrahydronaphthalen-2-yl)pyridin-4-yl)phenyl)-2-methoxypyridin-3-yl)methyl)-2,6-diazaspiro[3.4]octan-7-one]",305
16,"COc1nc(-c2cccc(-c3ccnc(-c4ccc5c(c4)CCC[C@H]5NC[C@@H]4CCC(=O)N4)c3Cl)c2Cl)ccc1CNC[C@H](C)O [Example 256, (S)-5-((((R)-6-(3-Chloro-4-(2-chloro-3-(5-((((S)-2-hydroxypropyl)amino)methyl)-6-methoxypyridin-2-yl)phenyl)pyridin-2-yl)-1,2,3,4-tetrahydronaphthalen-1-yl)amino)methyl)pyrrolidin-2-one]",168
17,"COc1nc(-c2cccc(-c3ccnc(-c4ccc5c(c4)CCC[C@H]5NC[C@@H]4CCC(=O)N4)c3Cl)c2Cl)ccc1CN[C@H]1CCOC1=O [Example 257, (S)-5-((((R)-6-(3-Chloro-4-(2-chloro-3-(6-methoxy-5-((((S)-2-oxotetrahydrofuran-3-yl)amino)methyl)pyridin-2-yl)phenyl)pyridin-2-yl)-1,2,3,4-tetrahydronaphthalen-1-yl)amino)methyl)pyrrolidin-2-one]",≥ 10000
18,"COc1nc(-c2cccc(-c3ccnc(-c4cc(OC)c5nc(CNC[C@@H]6CCC(=O)N6)nn5c4)c3Cl)c2Cl)ccc1CNC[C@@H]1CCC(=O)N1 [Example 258, (S)-5-((((6-(2-chloro-3-(3-chloro-2-(8-methoxy-2-(((((S)-5-oxopyrrolidin-2-yl)methyl)amino)methyl)-[1,2,4]triazolo[1,5-a]pyridin-6-yl)pyridin-4-yl)phenyl)-2-methoxypyridin-3-yl)methyl)amino)methyl)pyrrolidin-2-one]",75.4
19,"COc1nc(-c2cccc(-c3ccnc(-c4cc(OC)c5nc(CN6CC(C)(O)C6)nn5c4)c3Cl)c2Cl)ccc1CNC[C@@H]1CCC(=O)N1 [Example 259, (S)-5-((((6-(2-Chloro-3-(3-chloro-2-(2-((3-hydroxy-3-methylazetidin-1-yl)methyl)-8-methoxy-[1,2,4]triazolo[1,5-a]pyridin-6-yl)pyridin-4-yl)phenyl)-2-methoxypyridin-3-yl)methyl)amino)methyl)pyrrolidin-2-one]",58.6
20,"COc1nc(-c2cccc(-c3ccnc(-c4cc(OC)c5nc(CN[C@H]6CC[C@H](O)CC6)nn5c4)c3Cl)c2Cl)ccc1CNC[C@@H]1CCC(=O)N1 [Example 260, (S)-5-((((6-(2-Chloro-3-(3-chloro-2-(2-((((1r,4r)-4-hydroxycyclohexyl)amino)methyl)-8-methoxy-[1,2,4]triazolo[1,5-a]pyridin-6-yl)pyridin-4-yl)phenyl)-2-methoxypyridin-3-yl)methyl)amino)methyl)pyrrolidin-2-one]",26.8
21,"COc1nc(-c2cccc(-c3ccnc(-c4cc(OC)c5nc(CN6CC(C(=O)O)C6)nn5c4)c3Cl)c2Cl)ccc1CNC[C@@H]1CCC(=O)N1 [Example 261, (S)-1-((6-(3-Chloro-4-(2-chloro-3-(6-methoxy-5-((((5-oxopyrrolidin-2-yl)methyl)amino)methyl)pyridin-2-yl)phenyl)pyridin-2-yl)-8-methoxy-[1,2,4]triazolo[1,5-a]pyridin-2-yl)methyl)azetidine-3-carboxylic acid]",126
